# Values quoted from earlier work as cited in US20180280305A1 (Bayer HealthCare LLC, priority 2015, published 2018).
# Conditions: pain conditions, non-prescription (OTC) setting
smiles,measurement,value
COc1ccc2cc([C@H](C)C(=O)O)ccc2c1 [naproxen sodium],lowest effective dose,220 mg
